The results in this text go back to patent US20100130477A1, “Spirocyclobutyl Piperidine Derivatives” (ASTRAZENECA AB, priority 2008, published 2010).

By IC50 is commonly meant the point on the concentration scale where inhibition reaches its midpoint. Low values mean greater potency in that assay, high ones weaker potency in that assay.

T1 sequence (Q9Y5N1 whole entry): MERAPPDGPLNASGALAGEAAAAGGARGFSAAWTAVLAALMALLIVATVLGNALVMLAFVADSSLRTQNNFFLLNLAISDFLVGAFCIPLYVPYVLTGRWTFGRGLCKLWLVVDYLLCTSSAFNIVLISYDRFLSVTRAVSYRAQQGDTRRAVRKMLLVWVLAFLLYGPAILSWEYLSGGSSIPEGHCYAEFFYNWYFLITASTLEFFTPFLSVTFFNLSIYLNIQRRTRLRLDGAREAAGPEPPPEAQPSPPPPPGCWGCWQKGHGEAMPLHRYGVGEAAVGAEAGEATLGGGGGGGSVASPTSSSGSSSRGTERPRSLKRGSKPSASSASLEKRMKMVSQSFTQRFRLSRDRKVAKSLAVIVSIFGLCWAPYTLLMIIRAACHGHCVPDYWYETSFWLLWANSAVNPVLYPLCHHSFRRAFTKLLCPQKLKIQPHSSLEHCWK

The assay concerns the target T1, human Histamine H3 receptor (hH3R) (Homo sapiens, UniProt Q9Y5N1).
T1 construct: expressed in transfected cells; host or cells: CHO cells (Chinese Hamster Ovary); membranes
As to the kind of experiment: GTPγS Binding Assay (antagonist activity, [35S]GTPγS, (R)-α-methyl histamine 30 nM). Type of assay: biochemical. To be noted: membranes from CHO cells expressing hH3R, 90 minutes at room temperature. How it is done: Guanosine 5′-O-(3-[^35S]thio)triphosphate [GTPγS] Binding Assay
A GTPγS binding assay can be used to investigate antagonist properties of compounds in CHO cells (Chinese Hamster Ovary) transfected with human Histamine H3 receptor (hH3R). Membranes from CHO cells expressing hH3R (10 μg/well) are diluted in GTPγS assay buffer (20 mM Hepes, 10 mM MgCl2, 100 mM NaCl, pH 7.4) and preincubated with saponine (3 μg/ml), GDP (10 μM) and PVT-WGA SPA beads (125 μg/well) (Amersham) for 30 minutes. To determine antagonist activity, (R)-α-methyl histamine (30 nM) is added in 96 well SPA plate with [^35S]GTPγS (0.2 nM) and various concentration of H3R antagonists. The GTPγS binding assay is started with addition of the mixture membrane/saponine/GDP and incubated for 90 minutes at room temperature. The amount of bound [^35S]GTPγS is determined by using the MicroBeta Trilux counter (PerkinElmer). The percentage of [^35S]GTPγS bound in each sample is calculated as a percentage of that bound control sample incubated in absence of H3 antagonist. Duplicate determinations are obtained for each concentration, and the data are analyzed using ExcelFit4 to obtain the IC50.
In general terms: GTPγS resists hydrolysis and so accumulates on activated G proteins.
The molecule `O=C(C1CC2(CCN(c3cccnc3)CC2)C1)N1CCN(C2CCC2)CC1` [Example 1, (4-cyclobutylpiperazin-1-yl)(7-(pyridin-3-yl)-7-azaspiro[3.5]nonan-2-yl)methanone] showed an IC50 of 17.8 nM.

For the molecule `O=C(C1CC2(CCN(c3ccccn3)CC2)C1)N1CCN(C2CCC2)CC1` [Example 2, (4-cyclobutylpiperazin-1-yl)(7-(pyridin-2-yl)-7-azaspiro[3.5]nonan-2-yl)methanone], the IC50 amounted to 27 nM.

The molecule `O=C(C1CC2(CCN(c3ccccc3)CC2)C1)N1CCN(C2CCC2)CC1` [Example 3, (4-cyclobutylpiperazin-1-yl)(7-phenyl-7-azaspiro[3.5]nonan-2-yl)methanone] came in with an IC50 of 72.9 nM.

For `CC(C)S(=O)(=O)N1CCC2(CC1)CC(C(=O)N1CCN(C3CCC3)CC1)C2` [Example 4, (4-cyclobutylpiperazin-1-yl)(7-(isopropylsulfonyl)-7-azaspiro[3.5]nonan-2-yl)methanone], the IC50 was determined as 15.4 nM.

Regarding `CS(=O)(=O)N1CCC2(CC1)CC(C(=O)N1CCN(C3CCC3)CC1)C2` [Example 5, (4-cyclobutylpiperazin-1-yl)(7-(methylsulfonyl)-7-azaspiro[3.5]nonan-2-yl)methanone], the half-inhibitory concentration (IC50) turned out to be 7.29 nM.

In turn, `O=C(C1CC2(CCN(S(=O)(=O)c3ccccc3)CC2)C1)N1CCN(C2CCC2)CC1` [Example 6, (4-cyclobutylpiperazin-1-yl)(7-(phenylsulfonyl)-7-azaspiro[3.5]nonan-2-yl)methanone] had an IC50 of 6.56 nM.

`O=C(C1CCCCC1)N1CCC2(CC1)CC(C(=O)N1CCN(C3CCC3)CC1)C2` [Example 7, (4-cyclobutylpiperazin-1-yl)(7-(cyclohexanecarbonyl)-7-azaspiro[3.5]nonan-2-yl)methanone] gave an IC50 of 52.9 nM.

Turning to `CCc1cnccc1C(=O)N1CCC2(CC1)CC(C(=O)N1CCN(C3CCC3)CC1)C2` [Example 8, (4-cyclobutylpiperazin-1-yl)(7-(3-ethylisonicotinoyl)-7-azaspiro[3.5]nonan-2-yl)methanone], the IC50 is 22.9 nM.

With `O=C(c1cncc(Cl)c1)N1CCC2(CC1)CC(C(=O)N1CCN(C3CCC3)CC1)C2` [Example 9, (7-(5-chloronicotinoyl)-7-azaspiro[3.5]nonan-2-yl)(4-cyclobutylpiperazin-1-yl)methanone], the IC50 stood at 20.8 nM.

`O=C(c1cnccc1Cl)N1CCC2(CC1)CC(C(=O)N1CCN(C3CCC3)CC1)C2` [Example 10, (7-(4-chloronicotinoyl)-7-azaspiro[3.5]nonan-2-yl)(4-cyclobutylpiperazin-1-yl)methanone]: the IC50 worked out at 29.6 nM.

`Cc1ccnc(C)c1C(=O)N1CCC2(CC1)CC(C(=O)N1CCN(C3CCC3)CC1)C2` [Example 11, (4-cyclobutylpiperazin-1-yl)(7-(2,4-dimethylnicotinoyl)-7-azaspiro[3.5]nonan-2-yl)methanone]: the IC50 is 16.9 nM.

In turn, `Cc1ccc(C(=O)N2CCC3(CC2)CC(C(=O)N2CCN(C4CCC4)CC2)C3)cn1` [Example 12, (4-cyclobutylpiperazin-1-yl)(7-(6-methylnicotinoyl)-7-azaspiro[3.5]nonan-2-yl)methanone] came in with an IC50 of 26.2 nM.

As to `Cc1ncccc1C(=O)N1CCC2(CC1)CC(C(=O)N1CCN(C3CCC3)CC1)C2` [Example 13, (4-cyclobutylpiperazin-1-yl)(7-(2-methylnicotinoyl)-7-azaspiro[3.5]nonan-2-yl)methanone], the IC50 was 28.1 nM.

For `Cc1ccncc1C(=O)N1CCC2(CC1)CC(C(=O)N1CCN(C3CCC3)CC1)C2` [Example 14, (4-cyclobutylpiperazin-1-yl)(7-(4-methylnicotinoyl)-7-azaspiro[3.5]nonan-2-yl)methanone], the IC50 is 41.5 nM.

`N#Cc1ccc(C(=O)N2CCC3(CC2)CC(C(=O)N2CCN(C4CCC4)CC2)C3)nc1` [Example 15, 6-(2-(4-cyclobutylpiperazine-1-carbonyl)-7-azaspiro[3.5]nonane-7-carbonyl)nicotinonitrile]: the IC50 is 31.3 nM.

Consider `O=C(c1ncc(F)cc1F)N1CCC2(CC1)CC(C(=O)N1CCN(C3CCC3)CC1)C2` [Example 16, (4-cyclobutylpiperazin-1-yl)(7-(3,5-difluoropicolinoyl)-7-azaspiro[3.5]nonan-2-yl)methanone], for which the IC50 stood at 80.4 nM.

Molecule `O=C(c1cc(Cl)ccn1)N1CCC2(CC1)CC(C(=O)N1CCN(C3CCC3)CC1)C2` [Example 17, (7-(4-chloropicolinoyl)-7-azaspiro[3.5]nonan-2-yl)(4-cyclobutylpiperazin-1-yl)methanone] had an IC50 of 35 nM.

Molecule `Cc1cccc(C(=O)N2CCC3(CC2)CC(C(=O)N2CCN(C4CCC4)CC2)C3)n1` [Example 18, (4-cyclobutylpiperazin-1-yl)(7-(6-methylpicolinoyl)-7-azaspiro[3.5]nonan-2-yl)methanone] displayed a half-inhibitory concentration (IC50) of 54 nM.

In the case of `Cc1cccnc1C(=O)N1CCC2(CC1)CC(C(=O)N1CCN(C3CCC3)CC1)C2` [Example 19, (4-cyclobutylpiperazin-1-yl)(7-(3-methylpicolinoyl)-7-azaspiro[3.5]nonan-2-yl)methanone], the IC50 amounted to 24.5 nM.

Molecule `O=C(c1ccccn1)N1CCC2(CC1)CC(C(=O)N1CCN(C3CCC3)CC1)C2` [Example 20, (4-cyclobutylpiperazin-1-yl)(7-picolinoyl-7-azaspiro[3.5]nonan-2-yl)methanone] yielded an IC50 of 48 nM.

On to `O=C(c1cccnc1)N1CCC2(CC1)CC(C(=O)N1CCN(C3CCC3)CC1)C2` [Example 21, (4-cyclobutylpiperazin-1-yl)(7-nicotinoyl-7-azaspiro[3.5]nonan-2-yl)methanone], for which the IC50 turned out to be 18.2 nM.

With `O=C(c1ccncc1)N1CCC2(CC1)CC(C(=O)N1CCN(C3CCC3)CC1)C2` [Example 22, (4-cyclobutylpiperazin-1-yl)(7-isonicotinoyl-7-azaspiro[3.5]nonan-2-yl)methanone], the IC50 was found to be 12.6 nM.

`Cc1cnccc1C(=O)N1CCC2(CC1)CC(C(=O)N1CCN(C3CCC3)CC1)C2` [Example 23, (4-cyclobutylpiperazin-1-yl)(7-(3-methylisonicotinoyl)-7-azaspiro[3.5]nonan-2-yl)methanone] came in with a 50% inhibitory concentration (IC50) of 6.06 nM.

The molecule `Cc1cc(C(=O)N2CCC3(CC2)CC(C(=O)N2CCN(C4CCC4)CC2)C3)ccn1` [Example 24, (4-cyclobutylpiperazin-1-yl)(7-(2-methylisonicotinoyl)-7-azaspiro[3.5]nonan-2-yl)methanone] yielded a 50% inhibitory concentration (IC50) of 21.8 nM.

In turn, `Cc1cncc(C(=O)N2CCC3(CC2)CC(C(=O)N2CCN(C4CCC4)CC2)C3)c1` [Example 25, (4-cyclobutylpiperazin-1-yl)(7-(5-methylnicotinoyl)-7-azaspiro[3.5]nonan-2-yl)methanone] returned an IC50 of 12.5 nM.

Consider `COc1cc(C(=O)N2CCC3(CC2)CC(C(=O)N2CCN(C4CCC4)CC2)C3)ccn1` [Example 26, (4-cyclobutylpiperazin-1-yl)(7-(2-methoxyisonicotinoyl)-7-azaspiro[3.5]nonan-2-yl)methanone], for which the IC50 came out at 23.8 nM.

Regarding `O=C(Cc1cccnc1)N1CCC2(CC1)CC(C(=O)N1CCN(C3CCC3)CC1)C2` [Example 27, 1-(2-(4-cyclobutylpiperazine-1-carbonyl)-7-azaspiro[3.5]nonan-7-yl)-2-(pyridin-3-yl)ethanone], the IC50 amounted to 12.6 nM.

`O=C(Cc1ccncc1)N1CCC2(CC1)CC(C(=O)N1CCN(C3CCC3)CC1)C2` [Example 28, 1-(2-(4-cyclobutylpiperazine-1-carbonyl)-7-azaspiro[3.5]nonan-7-yl)-2-(pyridin-4-yl)ethanone] showed an IC50 of 13.8 nM.

For `O=C(CCc1ccncc1)N1CCC2(CC1)CC(C(=O)N1CCN(C3CCC3)CC1)C2` [Example 29, 1-(2-(4-cyclobutylpiperazine-1-carbonyl)-7-azaspiro[3.5]nonan-7-yl)-3-(pyridin-4-yl)propan-1-one], the 50% inhibitory concentration (IC50) worked out at 19.7 nM.

On to `O=C(c1ccccc1)N1CCC2(CC1)CC(C(=O)N1CCN(C3CCC3)CC1)C2` [Example 30, (7-benzoyl-7-azaspiro[3.5]nonan-2-yl)(4-cyclobutylpiperazin-1-yl)methanone], for which the concentration for half-maximal inhibition (IC50) is 48.4 nM.

The molecule `N#Cc1cccc(C(=O)N2CCC3(CC2)CC(C(=O)N2CCN(C4CCC4)CC2)C3)c1` [Example 31, 3-(2-(4-cyclobutylpiperazine-1-carbonyl)-7-azaspiro[3.5]nonane-7-carbonyl)benzonitrile] displayed an IC50 of 24.5 nM.

On to `O=C(Nc1ccccc1)N1CCC2(CC1)CC(C(=O)N1CCN(C3CCC3)CC1)C2` [Example 32, 2-(4-cyclobutylpiperazine-1-carbonyl)-N-phenyl-7-azaspiro[3.5]nonane-7-carboxamide], for which the IC50 was 47.7 nM.

For `CC(C)N1CCN(C(=O)C2CC3(CCN(S(C)(=O)=O)CC3)C2)CC1` [Example 33, (4-isopropylpiperazin-1-yl)(7-(methylsulfonyl)-7-azaspiro[3.5]nonan-2-yl)methanone], the half-inhibitory concentration (IC50) is 33.9 nM.

`Cc1cc(C(=O)N2CCC3(CC2)CC(C(=O)N2CCN(C(C)C)CC2)C3)ccn1` [Example 34, (4-isopropylpiperazin-1-yl)(7-(2-methylisonicotinoyl)-7-azaspiro[3.5]nonan-2-yl)methanone] gave an IC50 of 66.4 nM.

For `CC(C)N1CCN(C(=O)C2CC3(CCN(C(=O)c4ccncc4)CC3)C2)CC1` [Example 35, (7-isonicotinoyl-7-azaspiro[3.5]nonan-2-yl)(4-isopropylpiperazin-1-yl)methanone], the IC50 was 61.9 nM.
